# Data taken from US20240325396A1, “METHODS FOR TREATING CANCER” (Allarity Therapeutics, Inc., priority 2023, published 2024).
# pIC50: −log10 of the molar value. Where two headings read alike, the source gives them in different places.
# Columns and labels:
# [1] = system: BRCA1 mutant human triple negative breast cancer cell line MDA-MB-436; assay: Cell proliferation assay, MDA-MB-436; conditions: MDA-MB-436, 192 h, read-out: IC50, inhibition of cell proliferation
# [2] = system: PARP activity (PAR levels); assay: Phase 1 study, PARP inhibition by change in PAR levels; format: in vivo, human
# [3] = system: breast cancer; assay: Phase 2 breast cancer study, response; format: in vivo, human; conditions: twelve subjects evaluable for response
# Text: A breast cancer study was initiated in June 2018 and discontinued for futility after enrollment of 16 subjects. Twelve subjects were evaluable for response: Nine had PD and three subjects had SD.
# [4] = system: advanced ovarian cancer; assay: Phase 2 advanced ovarian cancer study QD vs BID, tumor response (RECIST 1.1), PFS; format: in vivo, human
# Text: Patient population: Histologically or cytologically documented epithelial ovarian carcinoma including high-grade serous, endometrioid, clear cell, carcinosarcoma, undifferentiated, and mixed histological subtypes (independent of BRCA1 and homologous recombination (HR) deficiency (HRD) status) and with 2 or more previous chemotherapies/antibody therapies including treatment with other PARPi for advanced, refractory, or recurrent ovarian cancer.
# The Interim Analysis Population (IAP) and safety population consisted of 28 patients (10 BID and 18 QD). Five patients received a first dose but dropped out before any tumor evaluation.
# FIG. 4A and FIG. 4B show the best change in tumor diameter from baseline in the IAP QD population (FIG. 4A) and the IAP BID population (FIG. 4B). The mean of best change in tumor diameter from baseline in the QD population (FIG. 4A) was 4% tumor growth. The CR in the BID pollution (FIG. 4B) was unconfirmed, and consisted of target lymph node lesions that all turned normal. This CR patient also had CA125 CR unconfirmed status. The mean of best change in tumor diameter from baseline in the BID population (FIG. 4B) was 29% tumor reduction. The median PFS was not reached in the BID population, and was 50 days (1.6 months) in the QD population.
# [5] = system: SR human B cell lymphoma cell line; assay: Cell proliferation assay, SR; conditions: 192 h, read-out: IC50, inhibition of cell proliferation
# [6] = Phase 2 advanced ovarian cancer study, adverse events and dose modifications; format: in vivo, human
# [7] = system: PARP activity
# [8] = system: CA125; assay: Phase 2 advanced ovarian cancer study, CA125 test response (GCIG); format: in vivo, human
# Procedure: Only patients with a baseline of CA125 twice the upper normal limit of 70 unit/ml who received at least one dose were included in IAP. Only patients who had completed 2 cycles were determined to be evaluable for CA125 response. Two QD patients and four BID patients were below 70 units/ml. The CA125 test was confirmed with a second measurement that was lower than or within 10% of the previous measurement.
# [9] = Phase 1 study, pharmacokinetics in plasma and urine; format: in vivo, human
# Text: Food intake vs fasting comparisons were made after administration of the Cycle 1 Day 7 dose (FIG. 2A) and after the Cycle 1 Day 15 dose (FIG. 2B).
# [10] = system: human acute myeloid leukemia MV-4-11-luc2/AcGFP cell line; assay: Cell proliferation assay, MV-4-11-luc2/AcGFP; conditions: 144 h, read-out: IC50, inhibition of cell proliferation
# [11] = Myelotoxicity, ovarian cancer patients pooled with 14 metastatic breast cancer patients; format: in vivo, human; conditions: BID + QD (N = 42)
# Procedure: Because myelotoxicity appeared to be a rare event for 2×-121, 14 patients with metastatic breast cancer that received 600 mg QD in a phase II trial were included in Table 10.
# [12] = system: Advanced Solid Tumors; assay: Phase 1 study E7449-E044-101, tumor response (RECIST 1.1); format: in vivo, human
# Procedure: The overall objective response rate (ORR; CR+PR) was 4.9% (n=2) with 1 subject each in the 600 mg (MTD) and 800 mg dose groups with a BOR of PR.
# [13] = system: P-gp; assay: in vitro; conditions: mouse
# [14] = system: human acute myeloid leukemia (AML) MV-4-11-luc2/AcGFP; assay: AML MV-4-11-luc2/AcGFP survival model; format: in vivo
# [15] = system: BRCA1 mutant MDA-MB-436 human breast cancer subcutaneous xenograft; assay: MDA-MB-436 subcutaneous xenograft model, anti-tumor activity; format: in vivo; conditions: 30 and 100 mg/kg
# [16] = Safety: Phase 1 study with preliminary Phase 2 metastatic breast cancer data; format: in vivo
# Procedure: Phototoxicity was in the Danish study primarily seen in 2 subjects treated during the hot summer period in 2018.
# Anemia was registered in only few subjects at doses of 400 mg and above 3/42 (7%) (all grade 2) and 4/42 had increased liver enzymes (grade 2: 1/42 (2.6%) and grade 3: 3/42 (7%)).
# Gastrointestinal side-effects were registered in some subjects: nausea 14/42 (33%), vomiting 7/42 (16%) and diarrhea 13/42 ([…]) all grade 1-2 apart from two cases of grade 3 diarrhea.
# [17] = published Phase I trial (Plummer, Br J Cancer 2020); cited from earlier work
# [18] = cited from earlier work
smiles,measurement,setting,value
"O=c1[nH]nc2c3c(cccc13)N=C(CN1Cc3ccccc3C1)N2 [stenoparib, 8-(isoindolin-2-ylmethyl)-2,9-dihydro-3H-pyridazino [3,4,5-de] quinazolin-3-one]",pIC50,[1],6.66
same,inhibition in PAR levels from baseline,"[2]; 600 mg (MTD), food effect cohort, 2 to 4 hours post-dose",up to 90%
same,decrease in PAR levels,[2]; 24 hours post-dose,≥ 70%
same,subjects with PD,[3],Nine
same,subjects with SD,[3],three
same,"Tumor response CR, patients n (%)","[4]; 600 mg QD, N = 18 IAP",0 (0%)
same,"Tumor response PD, patients n (%)","[4]; 600 mg QD, N = 18 IAP",9 (50%)
same,"Tumor response PR, patients n (%)","[4]; 600 mg QD, N = 18 IAP",0 (0%)
same,"Tumor response SD > 16w, patients n (%)","[4]; 600 mg QD, N = 18 IAP",1 (6%)
same,"Tumor response SD, patients n (%)","[4]; 600 mg QD, N = 18 IAP",3 (17%)
same,"Tumor response CR, patients n (%)","[4]; BID 200 mg morning + 400 mg evening, N = 10 IAP, unconfirmed",1 (10%) unconfirmed
same,"mean of best change in tumor diameter from baseline, tumor reduction",[4]; BID population,29%
same,median PFS,[4]; BID population,not reached
same,"Tumor response PD, patients n (%)","[4]; BID, N = 10 IAP",0 (0%)
same,"Tumor response PR, patients n (%)","[4]; BID, N = 10 IAP",0 (0%)
same,"Tumor response SD > 16w, patients n (%)","[4]; BID, N = 10 IAP",1 (10%)
same,"Tumor response SD, patients n (%)","[4]; BID, N = 10 IAP",3 (30%)
same,"mean of best change in tumor diameter from baseline, tumor growth",[4]; QD population,4%
same,pIC50,[5],5.98
same,Dose modifications: Discontinuation,[6]; 600 mg BID (N = 9),0%
same,Dose modifications: Interruption,[6]; 600 mg BID (N = 9),50%
same,Dose modifications: Reduction,[6]; 600 mg BID (N = 9),40%
same,Adverse events Grade 1-4,[6]; 600 mg BID (N = 10),70%
same,Adverse events Grade 3-4,[6]; 600 mg BID (N = 10),20%
same,Adverse events Grade 5,[6]; 600 mg BID (N = 10),0%
same,Treatment-related adverse events Grade 1,[6]; 600 mg BID (N = 10),70%
same,Treatment-related adverse events Grade 2,[6]; 600 mg BID (N = 10),60%
same,Treatment-related adverse events Grade 3,[6]; 600 mg BID (N = 10),20%
same,Treatment-related adverse events Grade 4,[6]; 600 mg BID (N = 10),0%
same,Treatment-related adverse events Grade 5,[6]; 600 mg BID (N = 10),0%
same,Adverse events Grade 1-4,[6]; 600 mg QD (N = 18),100%
same,Adverse events Grade 3-4,[6]; 600 mg QD (N = 18),61%
same,Adverse events Grade 5,[6]; 600 mg QD (N = 18),6%
same,Dose modifications: Discontinuation,[6]; 600 mg QD (N = 18),11%
same,Dose modifications: Interruption,[6]; 600 mg QD (N = 18),83%
same,Dose modifications: Reduction,[6]; 600 mg QD (N = 18),28%
same,Treatment-related adverse events Grade 1,[6]; 600 mg QD (N = 18),94%
same,Treatment-related adverse events Grade 2,[6]; 600 mg QD (N = 18),83%
same,Treatment-related adverse events Grade 3,[6]; 600 mg QD (N = 18),33%
same,Treatment-related adverse events Grade 4,[6]; 600 mg QD (N = 18),0%
same,Treatment-related adverse events Grade 5,[6]; 600 mg QD (N = 18),0%
same,PARP activity in tumor tissue,"[7]; single dose 30 mg/kg, 12 hours post-dose",low levels of PARP activity were observed
same,PARP activity in tumor tissue,"[7]; single dose 30 or 100 mg/kg, 1 and 6 hours post-dose",completely inhibited
same,PARP activity in tumor tissue,"[7]; single dose 30 or 100 mg/kg, 24 hours post-dose",restored to control levels
same,"CA125 response PR, patients n (%)","[8]; BID, N = 6 IAP",0 (0%)
same,"CA125 response SD, patients n (%)","[8]; BID, N = 6 IAP",1 (17%)
same,"CA125 response CR, patients n (%)","[8]; BID, N = 6 IAP, unconfirmed",1 (17%) unconfirmed
same,"CA125 response CR, patients n (%)","[8]; QD, N = 16 IAP",0 (0%)
same,"CA125 response PR, patients n (%)","[8]; QD, N = 16 IAP",0 (0%)
same,"CA125 response SD, patients n (%)","[8]; QD, N = 16 IAP",3 (19%)
same,increase of AUC by food,"[9]; 600 mg dose, plasma",10%
same,reduction of Cmax by food,"[9]; 600 mg dose, plasma",60%
same,accumulation based on AUC,[9]; Day -2 vs Day 15 administration,minimal accumulation
same,Tmax,"[9]; human, plasma, across subjects and dose groups, oral",0.5 to 4 h
same,administered dose recovered in urine,[9]; in vivo,less than 1.5%
same,half-life,"[9]; plasma, human subjects, oral, read-out: elimination half-life (converted)",~8 h
same,dose proportionality of absorption in plasma,[9]; single or multiple oral doses between 50 mg and 800 mg,proportional absorption
same,pIC50,[10],5.96
same,Anemia Grade 1-4,[11],21%
same,Anemia Grade 3-4,[11],7%
same,Neutropenia Grade 1-4,[11],2%
same,Neutropenia Grade 3-4,[11],0%
same,Thrombocytopenia Grade 1-4,[11],0%
same,Thrombocytopenia Grade 3-4,[11],0%
same,BOR of stable disease,[12]; 13 subjects,31.7%
same,subjects with best overall response (BOR) of CR,"[12]; 35 subjects assessed, investigator assessment, once daily dosing",None
same,overall objective response rate (ORR; CR+PR),"[12]; n=2, one PR each at 600 mg and 800 mg",4.9%
same,pIC50,[13],5.86
same,pIC50,[13]; with verapamil (P-gp antagonist; concentration not stated),5.74
same,disease burden as measured by luciferase signal,[14]; 100 mg/kg,Reduced disease burden
same,survival benefit,[14]; 100 mg/kg for 28 days,statistically significant survival benefit
same,"tolerability, body weight loss","[14]; 10, 30 or 100 mg/kg",well-tolerated without any significant body weight loss
same,disease burden by luciferase signal and survival benefit,[14]; 10 and 30 mg/kg,No statistically significant reduction in disease burden by luciferase signal or survival benefit
same,"tolerability, body weight loss",[15]; 28 days,no significant body weight loss
same,tumor growth inhibition,[15]; consecutive 28-day administration,statistically significant tumor growth inhibition
same,MTD,"[16]; administered orally once daily, phase I study",600 mg
same,diarrhea,"[16]; human, in vivo",25%
same,nausea,"[16]; human, in vivo",33%
same,vomiting,"[16]; human, in vivo",16%
same,DLT,[16]; in vivo,limited to fatigue and one case of anaphylactic reaction
same,cases of grade 3 diarrhea,[16]; in vivo,two
same,hematotoxicity or hepatotoxicity,[16]; in vivo,no significant hematotoxicity or hepatotoxicity was observed
same,myelotoxicity among adverse events,[17],no myelotoxicity among adverse events found in more than 5% of patients
NC(=O)c1cccc2cn(-c3ccc([C@@H]4CCCNC4)cc3)nc12 [niraparib],Adverse events Grade 5,"[18]; 300 mg QD (N = 463), QUADRA trial",2%
same,Dose modifications: Discontinuation,[18]; 300 mg QD (N = 463),21%
same,Dose modifications: Interruption,[18]; 300 mg QD (N = 463),62%
same,Dose modifications: Reduction,[18]; 300 mg QD (N = 463),47%
same,Treatment-related adverse events Grade 1,[18]; 300 mg QD (N = 463),90%
same,Treatment-related adverse events Grade 2,[18]; 300 mg QD (N = 463),56%
same,Treatment-related adverse events Grade 3,[18]; 300 mg QD (N = 463),20%
same,Treatment-related adverse events Grade 4,[18]; 300 mg QD (N = 463),<1%
same,Anemia Grade 1-4,[18]; QD (N = 463),51%
same,Anemia Grade 3-4,[18]; QD (N = 463),27%
same,Neutropenia Grade 1-4,[18]; QD (N = 463),20%
same,Neutropenia Grade 3-4,[18]; QD (N = 463),13%
same,Thrombocytopenia Grade 1-4,[18]; QD (N = 463),52%
same,Thrombocytopenia Grade 3-4,[18]; QD (N = 463),28%
